Results published in ChEMBL document CHEMBL1201862, “PubChem BioAssay data set” (2004).
Activity calls are given as the source filed them.

How the values were obtained:
[1] = molecular target: fMet-Leu-Phe receptor (Homo sapiens, UniProt P21462); assay: FPR ligands, dose response (AID 519); assay type: functional
[2] = molecular target: ATP-dependent molecular chaperone HSP82 (Candida albicans (strain WO-1) (Yeast), UniProt C4YTQ8); assay: loss of DOC-induced GRE-beta-galactosidase reporter signal, dose response, Hsp90 inhibitor project, S. cerevisiae, luminescence (AID 2400); assay type: functional, cell-based;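 note: beta-galactosidase luminescence from glucocorticoid response element reporter as proxy for Hsp90 function; inhibitor potency where signal loss means Hsp90 inhibition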
[3] = NIH-3T3 fibroblast cytotoxicity, dose response, cytotoxicity control, cell-based, fluorescence, Alamar Blue, secondary assay (AID 2327); assay type: functional;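 note: NIH-3T3 mouse fibroblasts cultured with fluconazole at 8 µg/mL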
[4] = CEM21 lymphoblast cell cytotoxicity, dose response, cytotoxicity control for viral fusion inhibitor project, CellTiter-Glo luminescence, cherry-picked (AID 652042); assay type: functional, cell-based;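 note: potency for signal decrease meaning cytotoxicity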
[5] = C. albicans growth with fluconazole, confirmation, fluorescence, retest (AID 2467); assay type: functional, cell-based
[6] = molecular target: T1, Serine/threonine-protein phosphatase (Candida dubliniensis (strain CD36 / CBS 7987 / NCPF 3949 / NRRLY-17841) (Yeast), UniProt B9W6M3); assay: calcineurin pathway inhibitors in yeast reporter, dose response, S. cerevisiae, CDRE-lacZ, luminescence, secondary (AID 2388); assay type: functional, cell-based;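 note: yeast reporter cells carrying a calcineurin-responsive lacZ construct stimulated with calcium chloride; luminescent beta-galactosidase reporter signal in whole cells rather than isolated phosphatase activity; potency for inhibition where a drop in reporter signal means calcineurin blockade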
T1 sequence (B9W6M3 whole entry): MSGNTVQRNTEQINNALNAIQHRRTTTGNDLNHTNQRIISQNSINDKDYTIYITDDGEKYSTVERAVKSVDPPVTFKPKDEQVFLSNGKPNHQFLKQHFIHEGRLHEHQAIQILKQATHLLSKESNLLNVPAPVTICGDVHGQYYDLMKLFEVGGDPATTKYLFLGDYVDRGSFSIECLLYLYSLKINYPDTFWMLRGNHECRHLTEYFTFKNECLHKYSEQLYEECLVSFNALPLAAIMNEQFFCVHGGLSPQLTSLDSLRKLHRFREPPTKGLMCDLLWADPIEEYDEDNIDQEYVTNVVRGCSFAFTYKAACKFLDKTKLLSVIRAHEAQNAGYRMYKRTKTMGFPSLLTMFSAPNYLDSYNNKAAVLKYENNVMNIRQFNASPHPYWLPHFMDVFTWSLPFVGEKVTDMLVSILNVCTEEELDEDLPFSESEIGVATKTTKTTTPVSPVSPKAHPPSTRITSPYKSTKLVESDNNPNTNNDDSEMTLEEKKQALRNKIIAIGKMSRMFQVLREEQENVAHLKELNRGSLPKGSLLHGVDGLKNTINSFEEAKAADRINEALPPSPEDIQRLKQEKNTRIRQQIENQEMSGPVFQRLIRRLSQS

[7] = ZM109 Env clade C HIV-1 fusion inhibitors, dose response, HeLa effector, CEM target cells, luciferase, cherry-pick (AID 652058); assay type: functional, cell-based
[8] = molecular target: T2, Short transient receptor potential channel 4 (Mus musculus, UniProt Q9QUQ5); assay: mouse TRPC4 channel activators, dose response, cell-based, HEK293 TRPC4/mu-opioid, Fluo-4 calcium (AID 434937); assay type: functional
T2 sequence (Q9QUQ5 whole entry): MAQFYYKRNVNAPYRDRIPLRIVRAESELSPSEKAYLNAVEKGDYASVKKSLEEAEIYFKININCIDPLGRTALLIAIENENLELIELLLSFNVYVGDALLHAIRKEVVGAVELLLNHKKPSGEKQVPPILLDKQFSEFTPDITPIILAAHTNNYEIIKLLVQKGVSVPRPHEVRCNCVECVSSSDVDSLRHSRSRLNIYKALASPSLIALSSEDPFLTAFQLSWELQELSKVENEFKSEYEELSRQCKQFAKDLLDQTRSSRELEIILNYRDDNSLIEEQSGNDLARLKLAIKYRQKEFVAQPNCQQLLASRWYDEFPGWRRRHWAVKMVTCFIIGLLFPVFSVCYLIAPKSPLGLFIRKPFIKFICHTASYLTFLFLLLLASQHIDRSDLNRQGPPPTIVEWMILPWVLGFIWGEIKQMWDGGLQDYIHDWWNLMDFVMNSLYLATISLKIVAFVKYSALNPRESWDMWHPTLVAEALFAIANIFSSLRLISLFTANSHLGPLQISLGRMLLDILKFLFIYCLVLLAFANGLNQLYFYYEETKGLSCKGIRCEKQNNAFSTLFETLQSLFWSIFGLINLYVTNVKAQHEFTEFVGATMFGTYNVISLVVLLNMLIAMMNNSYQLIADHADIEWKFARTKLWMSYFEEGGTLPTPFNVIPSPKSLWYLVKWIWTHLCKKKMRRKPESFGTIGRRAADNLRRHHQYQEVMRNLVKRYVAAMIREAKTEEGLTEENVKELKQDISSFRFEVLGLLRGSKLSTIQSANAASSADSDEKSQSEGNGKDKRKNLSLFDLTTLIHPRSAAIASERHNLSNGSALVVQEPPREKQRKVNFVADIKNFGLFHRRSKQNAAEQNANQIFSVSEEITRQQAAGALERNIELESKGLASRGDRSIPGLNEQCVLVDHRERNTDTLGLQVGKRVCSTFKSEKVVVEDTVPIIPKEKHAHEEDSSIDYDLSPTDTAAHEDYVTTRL

[9] = molecular target: COUP transcription factor 2 (Homo sapiens, UniProt P24468); assay: Luminescence-based cell-based high throughput dose response assay to identify inhibitors of COUP-TFII (NR2F2).; assay type: functional;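 note: HEK293 cells transiently cotransfected with COUP-TFII expression vector and reporter; luciferase reporter luminescence driven by COUP-TFII from the pX2-168 reporter plasmid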
[10] = cytotoxicity in HPDE-C7 cells, cell-based, fluorescence, HTS (AID 430); assay type: functional; details: Homo sapiens
[11] = cytotoxicity in HEK-293T cells, dose response, cytotoxicity control for TCR NF-kB inhibitor project, luminescence, T-cell screen hits (AID 489026); assay type: functional, cell-based;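 note: cells exposed to compound about 14 hours before the viability readout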
[12] = inhibitors of clade B AD8 Env fusion, dose response, cell-based, cherry-pick (AID 652062); assay type: functional;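 note: luciferase signal from cell-cell fusion driven by HIV-1 clade B AD8 Env; potency is for inhibitors of fusion seen as a drop in luminescence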
[13] = cytotoxicity in KRAS-transformed pancreatic duct cells, primary screen, cell-based, fluorescence, HTS (AID 431); assay type: functional; details: Homo sapiens;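 note: cell line used: HPDE-C7K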
[14] = cells; assay type: functional, cell-based
[15] = test system: H4; assay: Luminescence Cell-Based Dose Response HTS to Identify Activators of 5'UTR Stem-Loop Driven Prion Protein mRNA Translation in H4 Neuroglioblastoma Cells. [Related pubchem assays: 1829 (Project Summary), 1814 (Primary HTS)]; assay type: functional; details: Homo sapiens
[16] = Luminescence Cell-Based Dose Response HTS to Identify Activators of Luciferase Translation or Activity in H4 […] Cells. [Related pubchem assays: 1829 (Project Summary), 1814 (Primary HTS)]; assay type: functional
[17] = Luminescence Cell-Based Dose Confirmation HTS to Identify Activators of 5'UTR Stem-Loop Driven Alpha-Synuclein mRNA Translation in H4 Neuroglioblastoma Cells. [Related pubchem assays: 1829 (Project Summary), 1814 (Primary HTS)]; assay type: functional
[18] = cells; assay type: functional, cell-based; remark: listed apart in the source
[19] = molecular target: T3, Oxysterols receptor LXR-beta (Homo sapiens, UniProt P55055); assay type: functional, cell-based;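 note: agonist activity at LXR measured by a cell-based luminescence readout across a dose range, run as a counterscreen for daf-12 agonists; HEK293 cells with Gal4-LXR fusion and GAL4-driven luciferase reporter; potency for activation of Gal4-LXR reporter so compounds are agonists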
T3 sequence (P55055 whole entry): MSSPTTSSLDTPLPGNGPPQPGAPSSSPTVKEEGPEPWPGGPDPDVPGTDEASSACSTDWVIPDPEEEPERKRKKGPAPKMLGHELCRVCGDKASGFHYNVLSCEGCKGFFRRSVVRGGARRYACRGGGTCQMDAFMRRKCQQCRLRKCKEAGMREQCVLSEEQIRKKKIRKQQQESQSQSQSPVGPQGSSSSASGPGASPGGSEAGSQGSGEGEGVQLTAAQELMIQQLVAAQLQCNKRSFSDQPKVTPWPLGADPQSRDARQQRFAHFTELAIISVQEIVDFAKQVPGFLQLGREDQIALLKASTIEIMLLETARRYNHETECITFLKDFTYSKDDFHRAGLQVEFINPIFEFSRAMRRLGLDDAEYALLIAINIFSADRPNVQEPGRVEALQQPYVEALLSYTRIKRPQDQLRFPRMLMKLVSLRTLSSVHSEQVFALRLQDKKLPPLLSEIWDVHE

[20] = molecular target: Photoreceptor-specific nuclear receptor (Homo sapiens, UniProt Q9Y5X4); assay type: functional, cell-based;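 note: CHO-S cells with Gal4-NCOR and VP16-NR2E3 two-hybrid luciferase reporter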
[21] = A375 melanoma cell viability loss, dose response, counter-screen for MITF inhibitor project, CellTiter-Glo luminescence, dry powder, set 4 (AID 624364); assay type: functional, cell-based; details: A-375;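 note: A375 melanoma cells are MITF independent so this is a counter screen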
[22] = A375 melanoma cell cytotoxicity, dose response, counter-screen for MITF inhibitor project, CellTiter-Glo luminescence, dry powder, set 2 (AID 624489); assay type: functional, cell-based; details: A-375;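 note: actives are compounds lowering A375 viability meaning general cytotoxicity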

Chain of COUP transcription factor 2 (P24468 whole entry): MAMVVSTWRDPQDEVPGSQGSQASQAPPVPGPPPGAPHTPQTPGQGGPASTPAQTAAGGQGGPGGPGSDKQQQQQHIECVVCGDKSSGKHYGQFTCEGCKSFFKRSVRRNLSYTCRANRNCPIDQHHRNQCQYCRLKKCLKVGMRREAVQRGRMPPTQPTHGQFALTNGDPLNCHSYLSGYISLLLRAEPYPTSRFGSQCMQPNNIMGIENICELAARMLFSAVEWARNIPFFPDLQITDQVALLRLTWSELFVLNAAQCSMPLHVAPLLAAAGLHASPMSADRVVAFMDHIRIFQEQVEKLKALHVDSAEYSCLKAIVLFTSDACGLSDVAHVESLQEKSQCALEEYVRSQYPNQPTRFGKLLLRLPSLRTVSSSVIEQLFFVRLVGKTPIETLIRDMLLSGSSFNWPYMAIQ
Chain of fMet-Leu-Phe receptor (P21462 whole entry): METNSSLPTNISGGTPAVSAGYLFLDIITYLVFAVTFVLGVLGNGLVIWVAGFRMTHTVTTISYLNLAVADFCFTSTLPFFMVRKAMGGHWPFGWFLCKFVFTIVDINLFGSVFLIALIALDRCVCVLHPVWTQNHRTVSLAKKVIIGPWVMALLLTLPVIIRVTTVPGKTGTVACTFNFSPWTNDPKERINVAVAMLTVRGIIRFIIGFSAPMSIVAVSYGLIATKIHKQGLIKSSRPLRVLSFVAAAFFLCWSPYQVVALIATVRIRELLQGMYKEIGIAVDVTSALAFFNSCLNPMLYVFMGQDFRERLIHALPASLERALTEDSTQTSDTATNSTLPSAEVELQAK
Chain of Photoreceptor-specific nuclear receptor (Q9Y5X4 whole entry, the tested form may be a part): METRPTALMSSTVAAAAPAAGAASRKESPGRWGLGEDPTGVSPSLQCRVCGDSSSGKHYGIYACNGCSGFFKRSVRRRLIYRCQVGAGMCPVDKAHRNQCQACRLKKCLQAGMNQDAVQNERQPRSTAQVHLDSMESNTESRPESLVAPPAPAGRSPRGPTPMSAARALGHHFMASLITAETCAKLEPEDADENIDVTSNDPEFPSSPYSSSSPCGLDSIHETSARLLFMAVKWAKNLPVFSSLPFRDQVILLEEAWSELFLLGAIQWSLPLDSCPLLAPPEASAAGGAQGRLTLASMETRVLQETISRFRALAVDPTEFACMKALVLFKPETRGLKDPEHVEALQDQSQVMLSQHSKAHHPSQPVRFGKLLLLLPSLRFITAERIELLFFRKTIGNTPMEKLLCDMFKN
Chain of ATP-dependent molecular chaperone HSP82 (C4YTQ8 whole entry): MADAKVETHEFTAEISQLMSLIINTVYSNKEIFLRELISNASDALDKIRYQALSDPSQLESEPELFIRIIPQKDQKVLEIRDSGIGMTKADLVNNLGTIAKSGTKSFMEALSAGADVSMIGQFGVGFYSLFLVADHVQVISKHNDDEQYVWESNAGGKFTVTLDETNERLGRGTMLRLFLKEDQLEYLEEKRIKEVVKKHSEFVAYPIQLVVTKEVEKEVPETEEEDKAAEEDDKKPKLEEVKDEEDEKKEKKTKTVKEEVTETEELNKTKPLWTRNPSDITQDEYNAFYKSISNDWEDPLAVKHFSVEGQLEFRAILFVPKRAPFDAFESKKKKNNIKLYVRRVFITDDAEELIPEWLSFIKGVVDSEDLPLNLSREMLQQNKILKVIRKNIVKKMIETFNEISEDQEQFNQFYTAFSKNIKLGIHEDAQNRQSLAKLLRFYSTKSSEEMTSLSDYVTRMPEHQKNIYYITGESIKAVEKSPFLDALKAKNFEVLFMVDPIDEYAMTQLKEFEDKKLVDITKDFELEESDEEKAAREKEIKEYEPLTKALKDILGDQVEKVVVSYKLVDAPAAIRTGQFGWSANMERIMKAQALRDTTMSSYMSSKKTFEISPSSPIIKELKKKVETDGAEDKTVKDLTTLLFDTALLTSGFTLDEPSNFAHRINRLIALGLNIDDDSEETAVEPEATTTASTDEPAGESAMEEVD

With `Cc1nc(C)c(C(=O)C2=C(O)C(=O)N(CCCn3ccnc3)C2c2ccc(Cl)cc2)s1` (stereo not drawn) the Ki [1] was > 66.7 µM (inactive).
For `c1ccc2c(c1)CCN(c1[nH]cnc3c4ccccc4nc1-3)C2`, the EC50 [2] was > 150 µM (inactive), the EC50 [3] was > 150 µM (inactive) and the AC50 [4] was 64.8 µM (active). For the same compound, the EC50 [5] was 1.01 µM (active), the EC50 [6] was > 180 µM (inactive) and the AC50 [7] was 2.62 µM (active). For the same compound, the EC50 [8] was 5.96 µM (active), the IC50 [9] was 4.69 µM (active) and the EC50 [10] was 17.7 µM (active). The IC50 [11] was 21 µM (inactive), the AC50 [12] was 4.09 µM (active) and the EC50 [13] was > 20 µM (not active).
In the case of `Cc1ccc(NC(S)=NC(=NS(=O)(=O)c2ccccc2)c2ccccc2)cc1`, the EC50 [14] was 202 µM (active), the EC50 [15] was 6.51 µM (active) and the EC50 [16] was 16.5 µM (active). The EC50 [17] was 5.09 µM (active), the EC50 [18] was > 350 µM (not active) and the EC50 [19] was > 67.5 µM (inactive).
In the case of `CCCc1cc(=O)n2nc(N3CCC(C(=O)N4CCN(c5ccc(OC)cc5)CC4)CC3)sc2n1`, the IC50 [20] was 4.09 µM (active) and the IC50 [9] was 7.18 µM (active).
For `COc1ccc(C2=C(NC(=O)c3ccc4ccccc4c3)C(=O)c3ccccc3C2=O)cc1`, the AC50 [21] was > 70 µM (inactive) and the AC50 [22] was > 70 µM (inactive).
